Measured values: ChEMBL document CHEMBL3232727, “Evaluation of bisindole as potent β-glucuronidase inhibitors: synthesis and in silico based studies” (Bioorg Med Chem Lett, 2014)
pIC50: −log10 of the molar value.

Tests used:
[1] = target: T1, Beta-glucuronidase (Bos taurus) (UniProt A3KMY8); test: (§1) Inhibition of bovine liver beta-glucuronidase using p-nitrophenyl-beta-D-glucuronide as substrate after 30 mins by spectrophotometry; parameters: concentration or dose not given beside the values
T1 sequence (whole entry): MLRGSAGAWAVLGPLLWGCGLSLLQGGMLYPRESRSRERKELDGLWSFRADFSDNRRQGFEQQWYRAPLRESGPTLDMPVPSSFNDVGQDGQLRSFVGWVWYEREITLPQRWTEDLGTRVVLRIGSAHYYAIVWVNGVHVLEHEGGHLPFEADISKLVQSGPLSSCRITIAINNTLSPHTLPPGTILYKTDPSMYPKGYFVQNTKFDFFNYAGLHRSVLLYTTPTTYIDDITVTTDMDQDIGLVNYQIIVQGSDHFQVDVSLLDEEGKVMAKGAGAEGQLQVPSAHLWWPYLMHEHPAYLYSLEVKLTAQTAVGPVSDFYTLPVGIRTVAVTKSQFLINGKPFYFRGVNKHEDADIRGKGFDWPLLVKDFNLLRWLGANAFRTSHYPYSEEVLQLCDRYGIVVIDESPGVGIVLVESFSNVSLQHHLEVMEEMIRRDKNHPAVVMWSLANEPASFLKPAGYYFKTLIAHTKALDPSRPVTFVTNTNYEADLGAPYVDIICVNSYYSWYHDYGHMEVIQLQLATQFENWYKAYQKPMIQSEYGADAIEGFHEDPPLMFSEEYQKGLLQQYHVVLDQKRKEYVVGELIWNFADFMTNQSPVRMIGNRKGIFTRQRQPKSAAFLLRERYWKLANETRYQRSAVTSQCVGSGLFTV

Beta-glucuronidase = target: T2, Beta-glucuronidase (Bos taurus, UniProt A3KMY8); test: as §1
T2 sequence (A3KMY8 whole entry): T1 sequence (whole entry)

Row | inhibition [1] | pIC50 (Beta-glucuronidase) | Structure (SMILES)
1 |  | 4.74 | Fc1ccccc1C(c1c[nH]c2ccc(Br)cc12)c1c[nH]c2ccc(Br)cc12
2 |  | 4.68 | Cc1ccccc1C(c1c[nH]c2ccc(Br)cc12)c1c[nH]c2ccc(Br)cc12
3 | < 50% |  | COc1ccccc1C(c1c[nH]c2ccc(Br)cc12)c1c[nH]c2ccc(Br)cc12
4 | < 50% |  | O=[N+]([O-])c1ccccc1C(c1c[nH]c2ccc(Br)cc12)c1c[nH]c2ccc(Br)cc12

Continued, molecule first:

Row | Structure (SMILES) | inhibition [1] | pIC50 (Beta-glucuronidase)
5 | N#Cc1ccc2[nH]cc(C(c3ccc(Cl)c(Cl)c3)c3c[nH]c4ccc(C#N)cc34)c2c1 | < 50% | 
6 | CSc1ccc(C(c2c[nH]c3ccc(C#N)cc23)c2c[nH]c3ccc(C#N)cc23)cc1 | < 50% | 
7 | Clc1ccc(C(c2c[nH]c3ccc(Br)cc23)c2c[nH]c3ccc(Br)cc23)cc1Cl |  | 4.67
8 | Oc1ccc(C(c2c[nH]c3ccc(Br)cc23)c2c[nH]c3ccc(Br)cc23)c(O)c1 |  | 5.79
9 | N#Cc1ccc2[nH]cc(C(c3ccccc3[N+](=O)[O-])c3c[nH]c4ccc(C#N)cc34)c2c1 |  | 4.70
10 | O=[N+]([O-])c1ccc(C(c2c[nH]c3ccc(Br)cc23)c2c[nH]c3ccc(Br)cc23)cc1 | < 50% | 
11 | CSc1ccc(C(c2c[nH]c3ccc(Br)cc23)c2c[nH]c3ccc(Br)cc23)cc1 | < 50% | 
12 | COc1cc(C(c2c[nH]c3ccc(Br)cc23)c2c[nH]c3ccc(Br)cc23)ccc1O | < 50% | 
13 | Clc1cccc(C(c2c[nH]c3ccc(Br)cc23)c2c[nH]c3ccc(Br)cc23)c1 |  | 4.65
